The text below walks through data of US20240398759A1, “INHIBITING SEROTONIN TRANSPORTER PROTEIN (5-HTT)” (priority 2022, published 2024).

What is called Ki is the equilibrium dissociation constant of an inhibitor or competing ligand from its target. As usually defined, the IC50 is the midpoint of a concentration-inhibition curve. By Cmax is commonly meant the highest concentration seen after dosing. For orientation: Tmax means the time at which the peak concentration occurs.

In one series the target is PDE4A1A (Homo sapiens (Human), UniProt P27815). In words: PDE4 inhibition assay (fluorescence polarization), PDE4A1A. The series is classed as biochemical. As for the experimental part:
(§1) 100 μM dilutions of the test compounds were prepared in assay buffer (10% DMSO concentration) and 5 μl of the dilution was added to a 50 μl reaction so that the final concentration of DMSO is 1% in all of reactions. The enzymatic reactions were conducted at room temperature for 60 minutes in a 50 μl mixture containing PDE assay buffer, 100 nM FAM-cAMP, a PDE enzyme (Table 2.3.1) and the test compound (Section 2.2). After the enzymatic reaction, 100 μl of a binding solution (1:100 dilution of the binding agent with the binding agent diluent) was added to each reaction and the reaction was performed at room temperature for 60 minutes. Fluorescence intensity was measured at an excitation of 485 nm and an emission of 528 nm using a Tecan Infinite M1000 microplate reader.
(§2) • 1) Dilute 20 μM FAM-Cyclic-3′, 5′-AMP stock 100-fold with PDE buffer to make a 200 nM solution. • 2) Add 25 μl of FAM-Cyclic-3′,5′-AMP (200 nM) to each well designated “Positive Control”, “Test Inhibitor”, and “Substrate Control”. • 3) Add 20 μl of PDE assay buffer to each well designated “Substrate Control” and 45 μl of PDE assay buffer to each well designated “Blank”. • 4) Add 5 μl of inhibitor solution to each well designated “Test Inhibitor”. For the wells labeled “Positive Control”, “Substrate Control” and “Blank”, add 5 μl of the same solution without inhibitor (inhibitor buffer). • 5) Thaw PDE on ice. Upon first thaw, briefly spin tube containing enzyme to recover the full contents of the tube. • 6) Dilute PDE4 in PDE buffer to 7.5 pg/μl (0.15 ng/reaction)*. Initiate reaction by adding 20 µl of PDE4 (7.5 pg/μl) to the wells designated “Positive Control” and “Test Inhibitor.” • 7) Incubate at room temperature for 1 hour.
(§3) • 1) Mix binding agent thoroughly and dilute binding agent 1:100 with binding agent diluent. • 2) Add 100 μl diluted binding agent to each microwell. Incubate at room temperature for 1 hour with slow shaking. • 3) Read the fluorescent polarization of the sample in a microtiter-plate reader equipped for the measurement of fluorescence polarization, capable of excitation at wavelengths ranging from 485±5 nm and detection of emitted light ranging from 528±10 nm. Blank value is subtracted from all other values. • 4) Data Analysis: PDE activity assays were performed in duplicate at each concentration. Fluorescence intensity is converted to fluorescence polarization using the Tecan Magellan6 software. The fluorescence polarization data were analyzed using the computer software, Graphpad Prism. The fluorescence polarization (FPt) in absence of the compound in each data set was defined as 100% activity. In the absence of PDE and the compound, the value of fluorescent polarization (FPb) in each data set was defined as 0% activity. The percent activity in the presence of the compound was calculated according to the following equation: % activity=(FP−FPb)/(FPt−FPb)×100%, where FP=the fluorescence polarization in the presence of the compound. The values of % activity versus a series of compound concentrations were then plotted using non-linear regression analysis of sigmoidal dose-response curve generated with the equation Y=B+(T−B)/1+10^(LogEC50−X)×Hill Slope), where Y=percent activity, B=minimum percent activity, T=maximum percent activity, X=logarithm of compound and Hill Slope=slope factor or Hill coefficient. The IC50 value was determined by the concentration causing a half-maximal percent activity.

For the next series, the target named is PDE4C1 (Homo sapiens (Human), UniProt Q08493). Kind of series: PDE4 inhibition assay (fluorescence polarization), PDE4C1. The series is classed as biochemical. As for the experimental part: as §1, §2, §3
A general note: In fluorescence polarisation assays a small probe gives low polarisation when free and higher when bound to something large.

A further series deals with PDE4D2 (Homo sapiens (Human), UniProt Q08499). Kind of series: PDE4 inhibition assay (fluorescence polarization), PDE4D2. The series is classed as biochemical. As for the experimental part:
as §1, §2, §3

A further series has as its target 5-HT transporter (SERT) (Homo sapiens (Human), UniProt P31645). Particulars: cited from earlier work.
Another series concerns the target PDE4B2 (Homo sapiens (Human), UniProt Q07343). In words: PDE4 inhibition assay (fluorescence polarization), PDE4B2. The series is classed as biochemical. As for the experimental part:
as §1, §2, §3

Series [1] can be described thus: Pharmacokinetic profile in dogs (IV and PO). The note with it: dog, mean n=3.
From the text: HPLC Instrument: Shimsadzu (DGU-20A5R, Serial No: L20705621435 IX; LC-30AD Serial No: L20555611905 AE and L20555611816 AE; SIL-L30AC, Serial No: L20565605499 AE; Rack Changer II Serial No. L20585601125 SS; CTO20A: Serial No. L20205620413 CD; CBM-20A: Serial No. L20235636200 CD) • MS: AB API 5500 LC/MS/MS instrument (Serial No. EF221221812) • Column: Phenomenex Synergi 2.5 μm Polar-RP 100A. (50×3 mm) • Mobile Phase: (A) 5% Acetonitrile in Water (0.1% Formic acid); (B) 95% Acetonitrile in Water (0.1% Formic acid) • Samples: 50 μL of plasma sample+5 μL of blank solution+200 μL of acetonitrile for PPE (protein precipitation extraction).
The desired serial concentrations of working solutions were achieved by diluting stock solution of analyte with 50% acetonitrile in water solution. 5 μL of working solutions (5, 10, 20, 50, 100, 500, 1000, 5000, 10000 ng/mL) were added to 50 μL of the blank Beagle Dog plasma to achieve calibration standards of 0.5˜1000 ng/mL (0.5, 1, 2, 5, 10, 50, 100, 500, 1000 ng/mL) in a total volume of 55 μL. Five quality control samples at 1 ng/mL, 2 ng/mL, 5 ng/mL, 50 ng/mL and 800 ng/mL for plasma were prepared independently of those used for the calibration curves. These QC samples were prepared on the day of analysis in the same way as calibration standards.
55 μL standards, 55 μL QC samples and 55 μL unknown samples 50 μL plasma with 5 μL blank solution) were added to 200 μL of acetonitrile containing IS mixture for precipitating protein respectively. Then the samples were vortexed for 30 s. After centrifugation at 4 degree Celsius, 3900 rpm for 15 min, the supernatant was diluted 3 times with water.
A short description of series [2]: Hepatocyte metabolism (stability in cryopreserved hepatocytes). The note with it: human hepatocytes.
Method: A 2.5 uL aliquot of 100 μM test compound was incubated with 247.5 uL of cryopreserved hepatocytes suspended in serum-free incubation medium at 1 million viable cells/mL. The mixture was incubated at 37° C. and shaken at 500 rpm for the designated time points (0.5, 5, 10, 15, 30, 60, 90, or 120 min). At each time point, 25 uL aliquot of incubation mixture was transferred to 125 uL of cold acetonitrile containing internal standard, followed by centrifugation for 30 min at 3,220 g. 100 uL of supernatant was mixed with 100 uL of distilled water for analysis by LC-MS/MS. Peak area ratios were determined from extracted ion chromatograms and percent recovery was calculated.

PDE4C1, sequence (Q08493 whole entry): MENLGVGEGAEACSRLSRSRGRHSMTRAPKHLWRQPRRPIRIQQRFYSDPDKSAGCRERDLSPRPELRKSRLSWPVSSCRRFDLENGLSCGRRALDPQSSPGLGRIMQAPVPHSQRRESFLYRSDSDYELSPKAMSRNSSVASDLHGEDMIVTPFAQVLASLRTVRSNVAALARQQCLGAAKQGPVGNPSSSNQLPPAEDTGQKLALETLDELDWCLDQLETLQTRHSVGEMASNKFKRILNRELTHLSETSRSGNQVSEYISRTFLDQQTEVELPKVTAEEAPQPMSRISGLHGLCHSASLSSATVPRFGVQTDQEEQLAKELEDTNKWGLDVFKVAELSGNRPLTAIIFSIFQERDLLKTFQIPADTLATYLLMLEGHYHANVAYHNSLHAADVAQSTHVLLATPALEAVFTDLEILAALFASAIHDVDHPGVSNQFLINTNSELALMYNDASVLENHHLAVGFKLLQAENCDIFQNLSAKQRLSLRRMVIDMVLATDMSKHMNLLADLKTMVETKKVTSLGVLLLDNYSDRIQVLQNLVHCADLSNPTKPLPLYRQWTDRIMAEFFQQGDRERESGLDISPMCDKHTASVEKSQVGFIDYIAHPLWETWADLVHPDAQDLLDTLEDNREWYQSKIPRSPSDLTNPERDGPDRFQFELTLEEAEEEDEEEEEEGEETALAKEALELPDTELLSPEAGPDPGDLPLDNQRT
PDE4A1A, sequence (P27815 other isoform, or with tags, fused parts or gaps): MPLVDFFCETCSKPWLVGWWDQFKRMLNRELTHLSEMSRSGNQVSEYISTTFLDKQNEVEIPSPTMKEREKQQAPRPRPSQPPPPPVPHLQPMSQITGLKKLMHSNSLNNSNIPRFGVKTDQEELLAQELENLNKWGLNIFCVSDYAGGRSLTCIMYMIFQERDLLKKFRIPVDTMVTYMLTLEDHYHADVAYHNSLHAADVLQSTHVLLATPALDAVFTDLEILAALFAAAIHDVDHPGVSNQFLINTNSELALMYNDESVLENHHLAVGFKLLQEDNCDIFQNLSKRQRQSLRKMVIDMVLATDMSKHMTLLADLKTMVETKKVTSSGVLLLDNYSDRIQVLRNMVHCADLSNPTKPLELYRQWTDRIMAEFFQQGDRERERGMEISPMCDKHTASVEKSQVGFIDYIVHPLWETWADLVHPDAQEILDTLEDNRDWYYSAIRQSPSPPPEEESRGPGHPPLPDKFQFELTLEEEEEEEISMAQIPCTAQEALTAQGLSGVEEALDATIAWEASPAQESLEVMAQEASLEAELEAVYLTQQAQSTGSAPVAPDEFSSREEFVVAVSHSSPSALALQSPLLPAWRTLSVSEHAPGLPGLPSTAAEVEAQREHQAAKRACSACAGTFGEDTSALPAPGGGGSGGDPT
PDE4D2, sequence (Q08499 303-809): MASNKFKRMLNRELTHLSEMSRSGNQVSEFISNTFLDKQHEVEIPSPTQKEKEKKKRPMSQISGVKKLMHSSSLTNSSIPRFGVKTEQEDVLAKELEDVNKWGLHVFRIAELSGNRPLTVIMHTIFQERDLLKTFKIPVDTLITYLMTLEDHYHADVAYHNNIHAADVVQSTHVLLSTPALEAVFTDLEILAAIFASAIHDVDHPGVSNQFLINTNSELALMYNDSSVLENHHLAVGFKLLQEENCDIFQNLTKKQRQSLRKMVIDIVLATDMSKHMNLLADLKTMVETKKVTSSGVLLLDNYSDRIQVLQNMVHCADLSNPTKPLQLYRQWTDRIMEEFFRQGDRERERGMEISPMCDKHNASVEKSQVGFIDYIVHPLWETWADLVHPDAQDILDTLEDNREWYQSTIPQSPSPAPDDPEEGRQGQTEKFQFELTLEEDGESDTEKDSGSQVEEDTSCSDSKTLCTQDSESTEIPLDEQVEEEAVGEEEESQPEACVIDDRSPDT
PDE4B2, sequence (Q07343 other isoform, or with tags, fused parts or gaps): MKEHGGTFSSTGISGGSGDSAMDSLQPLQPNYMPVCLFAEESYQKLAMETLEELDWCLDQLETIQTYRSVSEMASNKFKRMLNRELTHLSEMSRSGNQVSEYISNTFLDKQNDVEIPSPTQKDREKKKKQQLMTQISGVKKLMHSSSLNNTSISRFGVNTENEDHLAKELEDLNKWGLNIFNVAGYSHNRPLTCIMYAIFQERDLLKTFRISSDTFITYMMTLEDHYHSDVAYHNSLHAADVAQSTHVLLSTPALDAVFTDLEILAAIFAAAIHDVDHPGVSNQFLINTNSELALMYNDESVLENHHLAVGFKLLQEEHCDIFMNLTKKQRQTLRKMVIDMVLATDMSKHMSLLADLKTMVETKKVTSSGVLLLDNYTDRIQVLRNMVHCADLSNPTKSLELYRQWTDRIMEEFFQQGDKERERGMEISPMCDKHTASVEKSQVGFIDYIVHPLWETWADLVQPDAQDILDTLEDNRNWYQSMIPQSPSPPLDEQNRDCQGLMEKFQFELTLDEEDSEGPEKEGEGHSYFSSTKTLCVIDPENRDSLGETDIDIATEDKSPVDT

On to (+) Mesembrine [Compound 002], for which the “PDE4A1A % INH @ 10 μM” value at PDE4A1A is given as 56%. Also, on PDE4C1, the “PDE4C1 % INH @ 10 μM” value is reported as 26%. For the same compound, at PDE4D2, the “PDE4D2 %INH @ 10 μM” value turned out to be 54%.

Regarding `COc1ccc(C23C=CC(O)CC2N(C)CC3)cc1OC` (stereo not shown) [Mesembrenol], the Ki at 5-HT transporter (SERT) (binding to the 5-HT transporter, isolated alkaloids) was 0.062 µM. The nH on 5-HT transporter (SERT) (concentration response curves, 5-HT transporter) is 1.1.

Turning to `COc1ccc(C23C=CC(O)CC2N(C)CC3)cc1OC` [Compound 024, (S, S, R) Mesembrenol], the “PDE4A1A % INH @ 10 μM” value at PDE4A1A was determined as 45%. Moreover, the “PDE4B2 % INH @ 10 μM” value at PDE4B2 turned out to be 55%. Further, the “PDE4C1 % INH @ 10 μM” value on PDE4C1 is 18%. Moreover, the “PDE4D2 %INH @ 10 μM” value on PDE4D2 is listed as 53%.

For the compound `COc1ccc(C23C=CC(O)CC2N(C)CC3)cc1OC` [Compound 020, (S, R, S) Mesembrenol], the “PDE4A1A % INH @ 10 μM” value on PDE4A1A is listed as 68%. Moreover, the “PDE4B2 % INH @ 10 μM” value at PDE4B2 was 62%. For the same compound, the “PDE4C1 % INH @ 10 μM” value on PDE4C1 turned out to be 32%. Further, the “PDE4D2 %INH @ 10 μM” value on PDE4D2 is given as 72%.

As to `COc1ccc(C23C=CC(O)CC2N(C)CC3)cc1OC` [Compound 023, (R, S, R) Mesembrenol], the “PDE4A1A % INH @ 10 μM” value on PDE4A1A was 15%. In addition, on PDE4B2, the “PDE4B2 % INH @ 10 μM” value is on record as 16%. Moreover, the “PDE4C1 % INH @ 10 μM” value on PDE4C1 was 9%. In addition, the “PDE4D2 %INH @ 10 μM” value on PDE4D2 amounted to 21%.

At PDE4A1A, (−) Mesembrine [Compound 001] registered an IC50 of 4.3 µM. In addition, the IC50 against PDE4C1 came out at 15 µM. The compound also came in with an IC50 against PDE4D2 of 2.7 µM. Moreover, in series [1] (IV 2 mg/kg), the AUCInf was 809 ng·h/mL, the “AUC_% Extrap_obs” value was found to be 0.53%, the AUClast stood at 805 ng·h/mL and the AUClast/D came out at 402. In series [1] (IV 2 mg/kg), this compound gave a C0 of 1226 ng/mL, a Cl_obs of 44.07 mL/min/kg, an MRTInf_obs of 1.41 h and a T1/2 of 1.65 h. In series [1] (PO 10 mg/kg), the AUCInf came to 3113.0 ng·h/mL, the “AUC_% Extrap_obs” value was found to be 0.25%, the AUClast amounted to 3106.9 ng·h/mL and the AUClast/D was determined as 310.7. In series [1] (PO 10 mg/kg), this compound returned a maximum concentration (Cmax) of 1878.0 ng/mL, an F of 76.9%, an MRTInf_obs of 1.81 h and a T1/2 of 2.99 h. Moreover, the Tmax in series [1] (PO 10 mg/kg) is recorded as 0.28 h. In addition, in series [2], the “% QH” value came out at 86%, the CLHB turned out to be 18 mL/min/kg, the “Hepatocyte Clint” value is on record as 55 μL/min/10^6 cells and the t1/2 amounted to 0.217 h. Besides, the CLint in series [2] (scaled) is reported as 131 mL/min/kg.

Turning to `COc1ccc(C23C=CC(O)CC2N(C)CC3)cc1OC` [Compound 021, (R, R, S) Mesembrenol], the “PDE4A1A % INH @ 10 μM” value at PDE4A1A is listed as 22%. The “PDE4B2 % INH @ 10 μM” value on PDE4B2 is reported as 12%. Also, at PDE4C1, the “PDE4C1 % INH @ 10 μM” value came to 7%. Also, the “PDE4D2 %INH @ 10 μM” value at PDE4D2 is recorded as 15%.
